Each structure is given as a SMILES string.

Assay [1] concerns Transgenic T2 Arabidopsis plants and ARBTH WT MC24 non-transgenic. The experiment in a line: Greenhouse post spray test, injury 14 DAT (Tables ii, iii).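 On all read-outs here: value is percent injury to the sprayed plants.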 Particulars: Arabidopsis thaliana, 336 h, Table ii; for pest or weed control at 50 g/ha: 50 g ai/ha; for pest or weed control at 100 g/ha: 100 g ai/ha; for pest or weed control at 200 g/ha: 200 g ai/ha. The format is in vivo, Arabidopsis thaliana.

The test system of assay [2] is Transgenic T2 Arabidopsis plants harboring PPO inhibitor tolerance trait. The experiment in a line: Lab based germination assay in 48-well plates (Table i). The format is in vivo, Arabidopsis thaliana. Particulars: construct AMATU_PPO2_TP_hemG (Escherichia coli); in comparison to wild type plants.
Assay [3] concerns Variant PPO Enzyme R128A, F420M (Amaranthus PPO2). The format is biochemical. The following applies: variant R128A, F420M vs wild type.
In assay [4] the target is Wild Type PPO Enzyme (Amaranthus PPO2, SEQ ID NO: 1) (Amaranthus tuberculatus, UniProt Q0NZW9). The assay can be described thus: PPO enzyme assay (recombinant), wild type. The format is biochemical.
Chain of Wild Type PPO Enzyme (Amaranthus PPO2, SEQ ID NO: 1) (Q0NZW9 1-534): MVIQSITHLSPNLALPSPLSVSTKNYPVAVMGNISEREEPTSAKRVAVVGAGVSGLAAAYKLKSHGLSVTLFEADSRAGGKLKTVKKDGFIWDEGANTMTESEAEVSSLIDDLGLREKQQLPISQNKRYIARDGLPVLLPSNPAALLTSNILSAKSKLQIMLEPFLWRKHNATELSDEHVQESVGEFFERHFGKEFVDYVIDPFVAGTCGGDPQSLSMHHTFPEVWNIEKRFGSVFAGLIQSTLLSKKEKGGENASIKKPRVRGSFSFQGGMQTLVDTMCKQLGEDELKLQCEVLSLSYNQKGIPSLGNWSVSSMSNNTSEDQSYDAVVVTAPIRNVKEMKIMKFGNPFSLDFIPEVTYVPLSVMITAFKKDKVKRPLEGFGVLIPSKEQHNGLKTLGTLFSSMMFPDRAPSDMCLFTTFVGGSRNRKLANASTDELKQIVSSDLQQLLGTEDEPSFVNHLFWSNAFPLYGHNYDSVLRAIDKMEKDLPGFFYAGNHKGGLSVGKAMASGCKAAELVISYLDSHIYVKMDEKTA

Consider `Cn1c(C(F)(F)F)cc(=O)n(-c2nc(Oc3ccccc3OCC(=O)O)c(F)cc2F)c1=O` [Uracilpyridine 9, 2-[2-[[3,5-difluoro-6-[3-methyl-2,6-dioxo-4-(trifluoromethyl)pyrimidin-1-yl]-2-pyridyl]oxy]phenoxy]acetic acid], for which the pest or weed control at 1 g/ha in assay [1] (AMATU_PPO2_WT event Q, 1 g ai/ha) worked out at 38%; in assay [1] (ARBTH WT MC24 non-transgenic, 1 g ai/ha + 1% MSO), 85%; in assay [1] (ARBTH_PPO1_WT event Q, 1 g ai/ha), 10%. Moreover, the pest or weed control at 5 g/ha in assay [1] (AMATU_PPO2_WT event Q, 5 g ai/ha) came to 68%; in assay [1] (ARBTH WT MC24 non-transgenic, 5 g ai/ha + 1% MSO), 100%; in assay [1] (ARBTH_PPO1_S305L_Y426M event O, 5 g ai/ha), 0%; in assay [1] (ARBTH_PPO1_WT event Q, 5 g ai/ha) it was 50%. Also, the pest or weed control at 10 g/ha in assay [1] (AMATU_PPO2_WT event Q, 10 g ai/ha) worked out at 100%; in assay [1] (ARBTH WT MC24 non-transgenic, 10 g ai/ha + 1% MSO) it was 100%; in assay [1] (ARBTH_PPO1_S305L_Y426M event O, 10 g ai/ha) it was 0%; in assay [1] (ARBTH_PPO1_WT event Q, 10 g ai/ha), 70%. Besides, the pest or weed control at 30 g/ha in assay [1] (AMATU_PPO2_WT event Q, 30 g ai/ha) is 100%; in assay [1] (ARBTH WT MC24 non-transgenic, 30 g ai/ha + 1% MSO), 100%; in assay [1] (ARBTH_PPO1_S305L_Y426M event O, 30 g ai/ha) it was 0%; in assay [1] (ARBTH_PPO1_WT event Q, 30 g ai/ha), 98%. Moreover, the pest or weed control at 80 g/ha came to 100% in assay [1] (ARBTH WT MC24 non-transgenic, 80 g ai/ha + 1% MSO) and 0% in assay [1] (ARBTH_PPO1_S305L_Y426M event O, 80 g ai/ha). For the same compound, the “Tolerance Factor” value in assay [2] came out at 1600.
In the case of `COCCOC(=O)COc1ncccc1Oc1nc(-n2c(=O)cc(C(F)(F)F)n(C)c2=O)c(F)cc1Cl` [Uracilpyridine 19, 2-methoxyethyl 2-[[3-[[3-chloro-5-fluoro-6-[3-methyl-2,6-dioxo-4-(trifluoromethyl)pyrimidin-1-yl]-2-pyridyl]oxy]-2-pyridyl]oxy]acetate], the “Tolerance Factor (R/S)” value in assay [3] came to 503. The IC50 in assay [4] came to 0.248 nM.
Regarding `C#CCOC(=O)COc1ncccc1Oc1nc(-n2c(=O)cc(C(F)(F)F)n(C)c2=O)c(F)cc1Cl` [Uracilpyridine 14, prop-2-ynyl 2-[[3-[[3-chloro-5-fluoro-6-[3-methyl-2,6-dioxo-4-(trifluoromethyl)pyrimidin-1-yl]-2-pyridyl]oxy]-2-pyridyl]oxy]acetate], the “Tolerance Factor (R/S)” value in assay [3] is on record as 675. Also, in assay [4], the half-inhibitory concentration (IC50) amounted to 0.234 nM.
As for `Cn1c(C(F)(F)F)cc(=O)n(-c2nc(Oc3cccnc3OCC(=O)OCC(F)F)c(Cl)cc2F)c1=O` [Uracilpyridine 16, 2,2-difluoroethyl 2-[[3-[[3-chloro-5-fluoro-6-[3-methyl-2,6-dioxo-4-(trifluoromethyl)pyrimidin-1-yl]-2-pyridyl]oxy]-2-pyridyl]oxy]acetate], in assay [3], the “Tolerance Factor (R/S)” value was determined as 508. Further, in assay [4], the IC50 is 0.175 nM.
`CC(C)COC(=O)COc1ncccc1Oc1nc(-n2c(=O)cc(C(F)(F)F)n(C)c2=O)c(F)cc1Cl` [Uracilpyridine 17, isobutyl 2-[[3-[[3-chloro-5-fluoro-6-[3-methyl-2,6-dioxo-4-(trifluoromethyl)pyrimidin-1-yl]-2-pyridyl]oxy]-2-pyridyl]oxy]acetate]: the “Tolerance Factor (R/S)” value in assay [3] came to 406. The IC50 in assay [4] amounted to 0.113 nM.
For the compound `Cn1c(C(F)(F)F)cc(=O)n(-c2nc(Oc3cccnc3OCC(=O)OCC3CC3)c(Cl)cc2F)c1=O` [Uracilpyridine 15, cyclopropylmethyl 2-[[3-[[3-chloro-5-fluoro-6-[3-methyl-2,6-dioxo-4-(trifluoromethyl)pyrimidin-1-yl]-2-pyridyl]oxy]-2-pyridyl]oxy]acetate], the “Tolerance Factor (R/S)” value in assay [3] was determined as 195. The half-inhibitory concentration (IC50) in assay [4] worked out at 0.22 nM.
As for `C=CCOC(=O)COc1ncccc1Oc1nc(-n2c(=O)cc(C(F)(F)F)n(C)c2=O)c(F)cc1Cl` [Uracilpyridine 13, allyl 2-[[3-[[3-chloro-5-fluoro-6-[3-methyl-2,6-dioxo-4-(trifluoromethyl)pyrimidin-1-yl]-2-pyridyl]oxy]-2-pyridyl]oxy]acetate], the “Tolerance Factor (R/S)” value in assay [3] was determined as 421. In addition, the IC50 in assay [4] turned out to be 0.218 nM.
Regarding `CCOC(=O)COc1ccc(F)cc1Oc1nc(-n2c(=O)cc(C(F)(F)F)n(C)c2=O)c(F)cc1Cl` [Uracilpyridine 7, ethyl 2-[2-[[3-chloro-5-fluoro-6-[3-methyl-2,6-dioxo-4-(trifluoromethyl)pyrimidin-1-yl]-2-pyridyl]oxy]-4-fluoro-phenoxy]acetate], the pest or weed control at 50 g/ha in assay [1] (ALOMY_PPO2_R137L_F438V event F) was 0%; in assay [1] (ALOMY_PPO2_R137L_F438V event G), 0%; in assay [1] (AMATU_PPO2_L397E_F420V event D), 0%; in assay [1] (AMATU_PPO2_L397E_F420V event L) it was 0%; in assay [1] (AMATU_PPO2_R128A_F420V event A), 13%; in assay [1] (AMATU_PPO2_R128A_F420V event D), 33%. Besides, the pest or weed control at 100 g/ha was 18% in assay [1] (ALOMY_PPO2_R137L_F438V event F); 0% in assay [1] (ALOMY_PPO2_R137L_F438V event G); 0% in assay [1] (AMATU_PPO2_L397E_F420V event D); 0% in assay [1] (AMATU_PPO2_L397E_F420V event L); 50% in assay [1] (AMATU_PPO2_R128A_F420V event A); 65% in assay [1] (AMATU_PPO2_R128A_F420V event D). Further, the pest or weed control at 200 g/ha in assay [1] (ALOMY_PPO2_R137L_F438V event F) was 13%; in assay [1] (ALOMY_PPO2_R137L_F438V event G), 8%; in assay [1] (AMATU_PPO2_L397E_F420V event D), 10%; in assay [1] (AMATU_PPO2_L397E_F420V event L), 33%; in assay [1] (AMATU_PPO2_R128A_F420V event A), 70%; in assay [1] (AMATU_PPO2_R128A_F420V event D), 75%.
On to `CCOC(=O)COc1ccccc1Oc1nc(-n2c(=O)c(C)c(C(F)(F)F)n(C)c2=O)c(F)cc1Cl` [Uracilpyridine 12, ethyl 2-[2-[[3-chloro-6-[3,5-dimethyl-2,6-dioxo-4-(trifluoromethyl)pyrimidin-1-yl]-5-fluoro-2-pyridyl]oxy]phenoxy]acetate], for which the “Tolerance Factor (R/S)” value in assay [3] came to 536. For the same compound, the IC50 in assay [4] was found to be 0.212 nM.
On to `CCOC(=O)COc1ccccc1Oc1nc(-n2c(=O)cc(C(F)(F)F)n(C)c2=O)ccc1Br` [Uracilpyridine 6, ethyl 2-[2-[[3-bromo-6-[3-methyl-2,6-dioxo-4-(trifluoromethyl)pyrimidin-1-yl]-2-pyridyl]oxy]phenoxy]acetate], for which the pest or weed control at 50 g/ha in assay [1] (ALOMY_PPO2_R137L_F438V event F), in assay [1] (ALOMY_PPO2_R137L_F438V event G), in assay [1] (AMATU_PPO2_L397E_F420V event D), in assay [1] (AMATU_PPO2_L397E_F420V event L), in assay [1] (AMATU_PPO2_R128A_F420V event A) and in assay [1] (AMATU_PPO2_R128A_F420V event D) was 0% in each case. Besides, the pest or weed control at 100 g/ha in assay [1] (ALOMY_PPO2_R137L_F438V event F) is 0%; in assay [1] (ALOMY_PPO2_R137L_F438V event G), 0%; in assay [1] (AMATU_PPO2_L397E_F420V event D), 0%; in assay [1] (AMATU_PPO2_L397E_F420V event L), 0%; in assay [1] (AMATU_PPO2_R128A_F420V event A), 43%; in assay [1] (AMATU_PPO2_R128A_F420V event D), 38%. In addition, the pest or weed control at 200 g/ha in assay [1] (ALOMY_PPO2_R137L_F438V event F) came to 18%; in assay [1] (ALOMY_PPO2_R137L_F438V event G) it was 0%; in assay [1] (AMATU_PPO2_L397E_F420V event D) it was 8%; in assay [1] (AMATU_PPO2_L397E_F420V event L), 15%; in assay [1] (AMATU_PPO2_R128A_F420V event A), 30%; in assay [1] (AMATU_PPO2_R128A_F420V event D), 28%.
On to `CCOC(=O)COC(=O)COc1ncccc1Oc1nc(-n2c(=O)cc(C(F)(F)F)n(C)c2=O)c(F)cc1Cl` [Uracilpyridine 18, (2-ethoxy-2-oxo-ethyl) 2-[[3-[[3-chloro-5-fluoro-6-[3-methyl-2,6-dioxo-4-(trifluoromethyl)pyrimidin-1-yl]-2-pyridyl]oxy]-2-pyridyl]oxy]acetate], for which, in assay [3], the “Tolerance Factor (R/S)” value was 753. In addition, in assay [4], the concentration for half-maximal inhibition (IC50) was found to be 0.154 nM.

By pest or weed control is commonly meant how far the test organism was held down. In general, IC50 refers to the concentration needed to halve the response being measured.

Values taken from patent US12123010B2, “Plants having increased tolerance to herbicides” (BASF SE, priority 2017, dated 2024).
